From patent publication US20250101487A1, “SELF-DILUTING MICROFLUIDIC DEVICE FOR RAPID ANTIMICROBIAL SUSCEPTIBILITY TESTS” (The University of Hong Kong, priority 2023, published 2025)
In brackets after ≈: the same amount, converted by molar mass. Where two headings read alike, the source gives them in different places. Each block holds one compound with its values, some of them ahead of it.

Columns and labels:
K. pneumoniae [1] = assay: SDFAST antimicrobial susceptibility test (WST-8 colorimetric); format: cell-based; settings: Klebsiella pneumoniae, WST-8, 37° C., 6 hours
Procedure: (§1) SDFAST (Self Dilution for Faster Antimicrobial Susceptibility Testing) involved a relatively simple mechanism with three phases: loading, droplet formation, and mixing (FIG. 3A). In the loading phase, a bacteria sample with a colorimetric indicator (CCK-8, cell counting kit-8) was injected into the constant-volume channels, while the antibiotic solution is injected into the varied-volume channels. In the droplet formation phase, the upper chip was slipped, forming droplets. In the mixing phase, the bacteria sample was mixed with the antibiotic solution. […] The well before the abrupt color change represented the minimum inhibitory concentration (MIC) of the bacteria with the antibiotic.
(§2) The solutions were injected using a micropipette with 0.1-20 μL tips. For lines with constant volume, 20 μL solution was required to fill up one entire line, while for lines with varied volumes, 10 μL solution was required. The excess solution was expelled from the hole adjacent to the end side of each line and could be wiped with KimWipes. After filling the wells, the chips were slid so that the lower line aligned and overlapped with the upper line, allowing the solutions to mix. Subsequently, the chips were placed inside a Petri dish containing FC-40, and the dish was sealed with parafilm. The dish was then incubated at 37° C. for 6 hours before color analysis using ImageJ.
The bacteria were cultured on an agar plate and incubated in Mueller-Hinton Broth (MHB, Sigma-Aldrich) at 37° C. overnight. The culture solution was then diluted 1000 times with MHB and mixed with 5% WST-8 indicator (Beyotime). […]
(§3) In the present invention, the SDFAST was operated with the water-soluble tetrazolium salt-8 (WST-8) assay, in which four prevalent bacteria, Acinetobacter baumannii (A. baumannii), Escherichia coli (E. coli), Klebsiella pneumoniae (K. pneumoniae) and clinical samples containing Staphylococcus species were tested under various antibiotics. […] After the identification, the MIC value was calculated based on dilution rates.

A. baumannii [2] = assay: as above; format: cell-based; settings: Acinetobacter baumannii, WST-8, 37° C., 6 hours
Procedure: as §1, §2
(§4) The bacteria were cultured on an agar plate and incubated in Mueller-Hinton Broth (MHB, Sigma-Aldrich) at 37° C. overnight. The culture solution was then diluted 1000 times with MHB and mixed with 5% WST-8 indicator (Beyotime). The antibiotic solutions were prepared by dissolving the desired amount of antibiotics (solid or liquid) into DI water, and the solutions were diluted by DI water according to the desired concentrations to be tested.
as §3, with “The colourless or very pale yellow well before” for “After”, “abrupt change in each line represented” for “identification,”, “corresponding MIC, which could be easily identified by the naked eyes.” for “MIC value was calculated based on dilution rates.”

E. coli [3] = assay: as above; format: cell-based; settings: Escherichia coli, WST-8, 37° C., 6 hours
Procedure: as §1, §2, §4
as §3, with “The colourless or very pale yellow well before” for “After”, “abrupt change in each line represented” for “identification,”, “corresponding MIC, which could be easily identified by the naked eyes.” for “MIC value was calculated based on dilution rates.”

A. baumannii [4] = assay: Broth microdilution; format: cell-based; settings: Acinetobacter baumannii
Procedure: (§5) Currently, AST is mostly commonly conducted by the broth microdilution method^3,4, in which the antibiotic solution of the desired concentration is prepared, injected into a microwell, and diluted serially from well to well. Afterward, an equal volume of bacteria solution is introduced to every microwell with antibiotics of varied concentrations, and the well-plate is incubated overnight. In the end, MIC is determined by observing and analyzing the turbidity of each well, and the well with the lowest concentration of antibiotic showing no turbidity represents the MIC^5. […] Another common yet less complex method is disc diffusion^7. In this technique, bacteria are initially cultured on Mueller-Hinton agar. Subsequently, antimicrobial discs are positioned on the agar plate, and the plate is left to incubate overnight. The diameters of inhibition zones, the regions where bacteria are being killed, are then measured, and these values are compared to reference standards to ascertain susceptibility. This method is used for qualitative determination of bacterial susceptibility, in which the bacteria are determined to be “resistant”, “intermediate,” or “susceptible” from the results. Despite its widespread use, this method has several drawbacks. […] Additionally, it is time-consuming, requiring 16 to 24 hours to produce results, and must be conducted in a laboratory^8,9. Consequently, an alternative approach that is portable, user-friendly, and time-efficient needs to be developed for rapid MIC determination.

K. pneumoniae [5] = assay: Broth microdilution; format: cell-based; settings: Klebsiella pneumoniae
Procedure: as §5

E. coli [6] = assay: Broth microdilution; format: cell-based; settings: Escherichia coli
Procedure: as §5

S. aureus [7] = settings: cited from earlier work
S. haemolyticus [8] = settings: S. haemolyticus 901622-2; cited from earlier work
S. capitis [9] = assay: SDFAST antimicrobial susceptibility test (WST-8), clinical Staphylococcus strains; format: cell-based
Procedure: as §1, §2
(§6) They were obtained from the Department of Microbiology, Queen Mary Hospital, Hong Kong (Patient samples). Vancomycin hydrochloride solution (100 mg/mL in DMSO, Sigma-Aldrich) was diluted with DI water to desired concentrations for each strain. The results were compared to those obtained by E-test from the Department of Microbiology.

S. aureus [10] = assay: as above; format: cell-based
Procedure: as §1, §2, §6

S. haemolyticus [11] = assay: as above; format: cell-based; settings: S. haemolyticus 901622-2
Procedure: as §1, §2, §6

S. caprae [12] = assay: as above; format: cell-based
Procedure: as §1, §2, §6

S. capitis [13] = settings: cited from earlier work
S. caprae [14] = settings: cited from earlier work

MIC (K. pneumoniae [1]): 6.25 µg/mL (≈ 18.9 µM)
SMILES: O=C(O)c1cn(C2CC2)c2cc(N3CCNCC3)c(F)cc2c1=O [CIP, Ciprofloxacin]

SMILES: CC(C)(O/N=C(\C(=O)N[C@@H]1C(=O)N2C(C(=O)[O-])=C(C[n+]3ccccc3)CS[C@H]12)c1csc(N)n1)C(=O)O [CTZ, Ceftazidime]
MIC (K. pneumoniae [1]): 62.5 µg/mL (≈ 114 µM) | MIC (A. baumannii [2]): 62.5 µg/mL (≈ 114 µM) | MIC (E. coli [3]): 62.5 µg/mL (≈ 114 µM) | MIC (A. baumannii [4]): 62.5 to 125 µg/mL (≈ 114 to 229 µM) | MIC (K. pneumoniae [5]): 125 µg/mL (≈ 229 µM) | MIC (E. coli [6]): 62.5 µg/mL (≈ 114 µM)

SMILES: C[C@H]1COc2c(N3CCN(C)CC3)c(F)cc3c(=O)c(C(=O)O)cn1c23 [LEV, Levofloxacin]
MIC (K. pneumoniae [1]): 50 µg/mL (≈ 138 µM) | MIC (A. baumannii [2]): 100 µg/mL (≈ 277 µM) | MIC (E. coli [3]): 12.5 µg/mL (≈ 34.6 µM) | MIC (A. baumannii [4]): 100 µg/mL (≈ 277 µM) | MIC (K. pneumoniae [5]): 50 µg/mL (≈ 138 µM) | MIC (E. coli [6]): 12.5 µg/mL (≈ 34.6 µM)

SMILES: CN[C@H](CC(C)C)C(=O)N[C@H]1C(=O)N[C@@H](CC(N)=O)C(=O)N[C@H]2C(=O)N[C@H]3C(=O)N[C@H](C(=O)N[C@H](C(=O)O)c4cc(O)cc(O)c4-c4cc3ccc4O)[C@H](O)c3ccc(c(Cl)c3)Oc3cc2cc(c3O[C@@H]2O[C@H](CO)[C@@H](O)[C@H](O)[C@H]2O[C@H]2C[C@](C)(N)[C@H](O)[C@H](C)O2)Oc2ccc(cc2Cl)[C@H]1O [Vancomycin]
MIC, E-test (reference value) (S. aureus [7]; S. aureus 900967): 1 µg/mL (≈ 0.69 µM) | MIC, E-test (reference value) (S. aureus [7]; S. aureus 901089): 1 µg/mL (≈ 0.69 µM) | MIC, E-test (reference value) (S. aureus [7]; S. aureus 901763): 0.5 µg/mL (≈ 0.345 µM) | MIC, E-test (reference value) (S. aureus [7]; S. aureus 902126): 0.75 µg/mL (≈ 0.518 µM) | MIC, E-test (reference value) (S. aureus [7]; S. aureus 902154): 0.5 µg/mL (≈ 0.345 µM) | MIC, E-test (reference value) (S. aureus [7]; S. aureus 902395): 0.5 µg/mL (≈ 0.345 µM) | MIC, E-test (reference value) (S. aureus [7]; S. aureus 903245): 0.75 µg/mL (≈ 0.518 µM) | MIC, E-test (reference value) (S. aureus [7]; S. aureus 932674): 0.75 µg/mL (≈ 0.518 µM) | MIC, E-test (reference value) (S. haemolyticus [8]): 1.5 µg/mL (≈ 1.04 µM) | MIC (S. capitis [9]; S. capitis 901820-1): 1 µg/mL (≈ 0.69 µM) | MIC (S. capitis [9]; S. capitis 902278-2): 1 µg/mL (≈ 0.69 µM) | MIC (S. capitis [9]; S. capitis 902530-2): 0.55 µg/mL (≈ 0.38 µM) | MIC (S. aureus [10]; S. aureus 900967): 1 µg/mL (≈ 0.69 µM) | MIC (S. aureus [10]; S. aureus 901089): 1 µg/mL (≈ 0.69 µM) | MIC (S. aureus [10]; S. aureus 901763): 0.5 µg/mL (≈ 0.345 µM) | MIC (S. aureus [10]; S. aureus 902126): 0.77 to 1.4 µg/mL (≈ 0.531 to 0.966 µM) | MIC (S. aureus [10]; S. aureus 902154): 0.94 µg/mL (≈ 0.649 µM) | MIC (S. aureus [10]; S. aureus 902395): 0.5 µg/mL (≈ 0.345 µM) | MIC (S. aureus [10]; S. aureus 903245): 1.4 µg/mL (≈ 0.966 µM) | MIC (S. aureus [10]; S. aureus 932674): 0.77 to 1.4 µg/mL (≈ 0.531 to 0.966 µM) | MIC (S. haemolyticus [11]): 1.56 µg/mL (≈ 1.08 µM) | MIC (S. caprae [12]; S. caprae 901820-2): 1.56 µg/mL (≈ 1.08 µM) | MIC (S. caprae [12]; S. caprae 902278-1): 0.195 µg/mL (≈ 0.135 µM) | MIC (S. caprae [12]; S. caprae 903211): 0.5 µg/mL (≈ 0.345 µM) | MIC (S. caprae [12]; S. caprae 903522): 1.11 µg/mL (≈ 0.766 µM) | MIC, E-test (reference value) (S. capitis [13]; S. capitis 901820-1): 1 µg/mL (≈ 0.69 µM) | MIC, E-test (reference value) (S. capitis [13]; S. capitis 902278-2): 1 µg/mL (≈ 0.69 µM) | MIC, E-test (reference value) (S. capitis [13]; S. capitis 902530-2): 0.5 µg/mL (≈ 0.345 µM) | MIC, E-test (reference value) (S. caprae [14]; S. caprae 901820-2): 1.5 µg/mL (≈ 1.04 µM) | MIC, E-test (reference value) (S. caprae [14]; S. caprae 902278-1): 0.19 µg/mL (≈ 0.131 µM) | MIC, E-test (reference value) (S. caprae [14]; S. caprae 903211): 0.5 µg/mL (≈ 0.345 µM) | MIC, E-test (reference value) (S. caprae [14]; S. caprae 903522): 1 µg/mL (≈ 0.69 µM)
